Values joined by “and” are separate entries in the source; they are usually repeats but may differ in a detail not shown here. Equal values may be shown once.
Columns and labels:
Assay type in all cases: physicochemical
[1] = Study on stability under influencing factors (high temperature, high humidity, light) of the crystal forms
Method: In order to evaluate the solid stability of the crystal forms of the present application, the stability of each of the crystal form I, the crystal form A, the crystal form D, the crystal form E and the crystal form F under influencing factors (high temperature, high humidity and light) was investigated. Each of the crystal forms was stored under the high temperature condition (60±2° C., open (weighing bottle)), and the high humidity condition (room temperature, 92.5%±5% RH, open (weighing bottle) and packaged) for 5 days, 10 days and 30 days, and under the ICH light condition (5500 Lux, 0.9 w/m^2, closed (weighing bottle) and packaged) for 5 days and 10 days. The inner packaging material of the packaged sample was a medical low-density polyethylene bag, and the outer packaging material is a medical polyester/aluminum/polyethylene composite bag. The samples after the storage were characterized by properties, purity (HPLC), crystal form (XRD) and water content to detect the changes in the crystal form and purity. The results are shown in Tables 8-12 (“^#” indicates the ICH condition).

[2] = Study on stability of the crystal form I under influencing factors (Experimental Example 2)
Method: In order to evaluate the solid stability of the crystal form I of the present application, the stability of the crystal form I under influencing factors (high temperature, high humidity and light) was investigated. The crystal form I was stored under the high temperature condition (40° C., open (weighing bottle)), the high temperature condition (60° C., open (weighing bottle)), the high humidity condition (room temperature, 75% RH, open (weighing bottle)) and the high humidity condition (room temperature, 92.5% RH, open (weighing bottle) and packaged) for 5 days, 10 days and 30 days, and under the ICH light condition (5500 Lux, 0.9 w/m^2, open (weighing bottle) and packaged) for 5 days and 10 days. The inner packaging material of the packaged sample was a double-layer low-density polyethylene bag, and the outer packaging material is a polyester/aluminum/polyethylene composite bag for medicine packaging. The samples after the storage were determined for properties, related substances (HPLC), crystal form (XRD), water content and content to investigate the influence of high temperature, high humidity and light conditions on the product. The results are shown in Table 13 (“^#” indicates the ICH condition).

[3] = Particle size distribution test after jet milling (light scattering); details: for X90 Mean: mean of 3 experiments; for X90: single experiments 1-3
Method: The particle size distribution X90 described herein is determined by a light scattering method (Method 3 of Determination of Particle Size and Distribution of General Chapter 0982, Chinese Pharmacopoeia, Volume IV, 2020 Edition).
After jet milling, the crystal form I was tested for the particle size distribution by referring to Method 3 (a light scattering method) of Determination of Particle Size and Distribution of General Chapter 0982, Chinese Pharmacopoeia, Volume IV, 2020 Edition, with the specific steps as follows: 10 mg of the sample was weighed and placed in a laser scattering particle size distribution analyzer for testing (trigger conditions: 10 s, 1%; dispersion pressure: 2.0 bar).

[4] = Study on accelerated stability and long-term stability of the crystal form I; details: long-term, 25° C. ± 2° C., 60% ± 5% RH, packaged
[5] = 92.5% RH, room temperature, open, 5 days
[6] = 92.5% RH, room temperature, open, 10 days
[7] = 92.5% RH, room temperature, open, 30 days
[8] = Light (ICH, 5500 Lux), closed, 10 days
[9] = 75% RH, room temperature, open, 5 days
[10] = 75% RH, room temperature, open, 10 days
[11] = 75% RH, room temperature, open, 30 days
[12] = Light (ICH, 5500 Lux), open, 5 days
[13] = Light (ICH, 5500 Lux), open, 10 days

## Cn1cc(-c2nc(N=S(C)(C)=O)ccc2Oc2ccc(F)cc2F)c2cc[nH]c2c1=O [crystal form I]
[1]; 60° C., open, 5 days
  Impurity content: 1.23%
[1]; 60° C., open, 10 days
  Crystal form change: Unchanged
  Impurity content: 1.21%
  Water content: 0.19%
[1]; 60° C., open, 30 days
  Crystal form change: Unchanged
  Impurity content: 1.31%
  Water content: 0.15%
[1]; 92.5% RH, packaged, 30 days
  Crystal form change: Unchanged
  Impurity content: 1.32%
  Water content: 0.23%
[1]; [5]
  Impurity content: 1.23%
[1]; [6]
  Crystal form change: Unchanged
  Impurity content: 1.23%
  Water content: 0.36%
[1]; [7]
  Crystal form change: Unchanged
  Impurity content: 1.30%
  Water content: 0.31%
[1]; Light (ICH), packaged, 10 days
  Crystal form change: Unchanged
  Impurity content: 1.21%
  Water content: 0.30%
[1]; Light (ICH, 5500 Lux), closed, 5 days
  Impurity content: 1.18%
[1]; [8]
  Crystal form change: Unchanged
  Impurity content: 1.21%
  Water content: 0.34%
[1]; starting crystal form
  Impurity content: 1.20%
  Water content: 0.39%
[2]; 40° C., open, 5 days
  Crystal form change: Unchanged
  Impurity content: 0.06%
  Water content: 0.02%
[2]; 40° C., open, 10 days
  Crystal form change: Unchanged
  Impurity content: 0.08%
  Water content: 0.01%
[2]; 40° C., open, 30 days
  Crystal form change: Unchanged
  Impurity content: 0.08%
  Water content: 0.02%
[2]; 60° C., open, 5 days
  Crystal form change: Unchanged
  Impurity content: 0.07%
  Water content: 0.01%
[2]; 60° C., open, 10 days
  Crystal form change: Unchanged
  Impurity content: 0.08%
  Water content: 0.01%
[2]; 60° C., open, 30 days
  Crystal form change: Unchanged
  Impurity content: 0.09%
  Water content: 0.02%
[2]; [9]
  Crystal form change: Unchanged
  Impurity content: 0.06%
  Water content: 0.02%
[2]; [10]
  Crystal form change: Unchanged
  Impurity content: 0.08%
  Water content: 0.03%
[2]; [11]
  Crystal form change: Unchanged
  Impurity content: 0.08%
  Water content: 0.04%
[2]; 92.5% RH, packaged, 5 days
  Crystal form change: Unchanged
  Impurity content: 0.06%
  Water content: 0.02%
[2]; 92.5% RH, packaged, 10 days
  Crystal form change: Unchanged
  Impurity content: 0.08%
  Water content: 0.01%
[2]; 92.5% RH, packaged, 30 days
  Crystal form change: Unchanged
  Impurity content: 0.08%
  Water content: 0.03%
[2]; [5]
  Crystal form change: Unchanged
  Impurity content: 0.06%
  Water content: 0.03%
[2]; [6]
  Crystal form change: Unchanged
  Impurity content: 0.08%
  Water content: 0.03%
[2]; [7]
  Crystal form change: Unchanged
  Impurity content: 0.08%
  Water content: 0.06%
[2]; Light (ICH), packaged, 5 days
  Crystal form change: Unchanged
  Impurity content: 0.06%
  Water content: 0.02%
[2]; Light (ICH), packaged, 10 days
  Crystal form change: Unchanged
  Impurity content: 0.08%
  Water content: 0.02%
[2]; [12]
  Crystal form change: Unchanged
  Impurity content: 0.06%
  Water content: 0.01%
[2]; [13]
  Crystal form change: Unchanged
  Impurity content: 0.08%
  Water content: 0.02%
[2]; starting crystal form I
  Impurity content: 0.05%
  Water content: 0.02%
[3]; milling pressure 0.1 MPa
  X90 Mean: 11.50 μm
  X90: 11.54 μm and 11.46 μm and 11.50 μm
[3]; milling pressure 0.3 MPa
  X90 Mean: 5.82 μm
  X90: 5.78 μm and 6.02 μm and 5.67 μm
[4]; 3 months
  Impurity content: 0.08%
  Water content: 0.03%
[4]; 6 months
  Water content: 0.04%

Source: patent US20240101551A1, “CRYSTAL FORM AND SALT FORM OF BROMINE DOMAIN PROTEIN INHIBITOR AND PREPARATION METHOD THEREFOR” (CHIA TAI TIANQING PHARMACEUTICAL GROUP CO., LTD., priority 2020, published 2024)
